Reference: patent EP0153678A1, “Cinnamic acid derivatives, processes for the preparation thereof and pharmaceutical compositions” (Tanabe Seiyaku Co., Ltd., priority 1984, dated 1985)
Counter-ions that a name gives are not always drawn.

Key:
[1] = tested on: pulmonary embolism induced by arachidonic acid; assay: Prophylactic effect against pulmonary embolism induced by arachidonic acid in mice (method of Kohler et al.); format: in vivo; settings: for Evalu-tion (shortening rate of the recovery time): ddY male mice, test compound 30 mg/kg orally in 0.25 % CMC, after one hour arachidonic acid 70 mg/kg intravenously; for prophylactic effect against arachidonic acid-induced pulmonary embolism, relative to 3-[4-(3-pyridylmethyl)phenyl]-2-methylacrylic acid hydrochloride: Kohler et al.'s method, times as strong as the known compound
Method: After one hour, arachidonic acid (70 mg/10 ml saline solution/kg) was intravenously administered. […] The time from having had difficulty in breathing and laying till starting to move was counted as a recovery time. When the test animal was died, the longest recovery time during the test was counted. The shortening rate of the recovery time was calculated by the following formula for showing the effect of the test compounds.

[2] = Toxicity compared with the known compound (method not described); settings: fraction of the toxicity of the sodium salt of the known compound

With `CC(=Cc1ccc(Cc2cccnc2)cc1)C(=O)O.Cl` [3-[4-(3-pyridylmethyl)phenyl]-2-methylacrylic acid hydrochloride, reference compound] the “Evalu-tion (shortening rate of the recovery time)” value (shortened to “Evalu-tion”) [1] was “± (evaluated as (±) when it was from 20 % to less than 50 %)”.

With `CC(=Cc1ccc(C(=O)c2cccnc2)cc1)C(=O)O` [hydrochloride] the “Evalu-tion” value [1] was “+ (evaluated as (+) when it was more than 50 %)”.

In the case of `CCOC(c1ccc(C=C(C)C(=O)[O-])cc1)c1cccnc1.[Na+]` (stereo not drawn) [sodium α-methyl-4-(α-ethoxy-3-pyridylmethyl)cinnamate], the “prophylactic effect against arachidonic acid-induced pulmonary embolism, relative to 3-[4-(3-pyridylmethyl)phenyl]-2-methylacrylic acid hydrochloride” value [1] is reported as “more than 2 times”, the “Evalu-tion” value [1] is reported as “+ (evaluated as (+) when it was more than 50 %)” and the “toxicity relative to sodium 3-[4-(3-pyridylmethyl)phenyl]-2-methyl--acrylate” value [2] is reported as “about half”.

For `COC(c1ccc(C=C(C)C(=O)O)cc1)c1cccnc1` (stereo not drawn) [sodium α-methyl-4-(α-methoxy-3-pyridylmethyl)cinnamate], the “Evalu-tion” value [1] was “+ (evaluated as (+) when it was more than 50 %)”.

In the case of `CCCOC(c1ccc(C=C(C)C(=O)[O-])cc1)c1cccnc1.[Na+]` (stereo not drawn) [sodium α-methyl-4-(α-n-propoxy-3-pyridylmethyl)cinnamate], the “Evalu-tion” value [1] is reported as “+ (evaluated as (+) when it was more than 50 %)”.

In the case of `CC(=Cc1ccc(C(O)c2cccnc2)cc1)C(=O)O` (stereo not drawn) [α-methyl-4-(α-hydroxy-3-pyridylmethyl)cinnamic acid hydrochloride], the “Evalu-tion” value [1] is reported as “+ (evaluated as (+) when it was more than 50 %)”.

For `CC(=Cc1ccc(C(O)c2cccnc2)cc1)C(=O)O` (stereo not drawn) [α-methyl-4-(α-hydroxy-3-pyridylmethyl)cinnamic acid], the “prophylactic effect against arachidonic acid-induced pulmonary embolism, relative to 3-[4-(3-pyridylmethyl)phenyl]-2-methylacrylic acid hydrochloride” value [1] was “more than 2 times”.
